Common to all, as to test: relative viability (nuclei count vs DMSO), 5 days (fraction); higher = more cells survive
Compound in assay [1]: C1CC1C(=O)NC2=NNC3=C2C=CC(=C3)C4=CC(=CC=C4)C(=O)NC5CC5 [XMD13-2] + C[C@]1(O)C[C@@H](c2nc(-c3ccc4ccc(-c5ccccc5)nc4c3)c3c(N)nccn32)C1 [Linsitinib] (partner 1 µM)
The essentials: (§1)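 Lung cancer cell lines in 1536-well plates got either a single drug or a fixed anchor-drug dose together with five library-drug doses (not always all listed) in √10 steps, by pin tool, on the day after seeding. Nuclei were counted after 5 days, and relative viability is the treated-to-vehicle ratio of nuclei counts. Values are medians of duplicate plates.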

Compound in assay [2]: C1CC1C(=O)NC2=NNC3=C2C=CC(=C3)C4=CC(=CC=C4)C(=O)NC5CC5 [XMD13-2] + O=C(c1cc(Cc2n[nH]c(=O)c3ccccc23)ccc1F)N1CCN(C(=O)C2CC2)CC1 [Olaparib] (partner 8 µM)
The method in brief: as §1

Compound in assay [3]: C1CC1C(=O)NC2=NNC3=C2C=CC(=C3)C4=CC(=CC=C4)C(=O)NC5CC5 [XMD13-2] + CC1(C)CCC(c2ccc(Cl)cc2)=C(CN2CCN(c3ccc(C(=O)NS(=O)(=O)c4ccc(N[C@H](CCN5CCOCC5)CSc5ccccc5)c(S(=O)(=O)C(F)(F)F)c4)cc3)CC2)C1 [Navitoclax] (partner 0.5 µM)
The method in brief:
as §1

Compound in assay [4]: Cc1nc(Nc2ncc(C(=O)Nc3c(C)cccc3Cl)s2)cc(N2CCN(CCO)CC2)n1 [Dasatinib] + COc1cccc2cc(-c3nc([C@H]4CC[C@H](C(=O)O)CC4)n4ncnc(N)c34)[nH]c12 [OSI-027] (partner 0.5 µM)
The essentials:
as §1

Regarding UMC-11, the relative viability in assay [1] (first compound 0.05 µM) came out at 1.18; in assay [1] (first compound 0.1581 µM) it was 0.942; in assay [1] (first compound 0.5 µM) it was 0.996; in assay [1] (first compound 1.581 µM), 1.07; in assay [1] (first compound 5 µM), 1.04; in assay [2] (first compound 0.05 µM) it was 0.528. Besides, the relative viability in assay [2] (first compound 0.1581 µM) stood at 0.407; in assay [2] (first compound 0.5 µM), 0.39; in assay [2] (first compound 1.581 µM), 0.364; in assay [2] (first compound 5 µM), 0.318; in assay [3] (first compound 0.05 µM) it was 0.347; in assay [3] (first compound 0.1581 µM), 0.284. The relative viability in assay [3] (first compound 0.5 µM) is 0.309; in assay [3] (first compound 1.581 µM), 0.344; in assay [3] (first compound 5 µM), 0.265; in assay [4] (first compound 0.005 µM), 0.459; in assay [4] (first compound 0.01581 µM), 0.375; in assay [4] (first compound 0.05 µM), 0.413. The relative viability came to 0.329 in assay [4] (first compound 0.1581 µM) and 0.264 in assay [4] (first compound 0.5 µM).

(Values after the supplement of paper PMC10307832.)
